Source: ChEMBL document CHEMBL1151609, “The discovery of novel openers of Ca2+-dependent large-conductance potassium channels: Pharmacophore search and physiological evaluation of flavonoids” (Bioorg Med Chem Lett, 1997)

The compounds below were run against Calcium-activated potassium channel subunit alpha-1 (Homo sapiens) (UniProt Q12791) (assay: The compound was tested for maxi-K channel opening property at concentration of 20 uM, activity expressed as percentage of current).
Calcium-activated potassium channel subunit alpha-1 (Homo sapiens), sequence (Q12791 whole entry): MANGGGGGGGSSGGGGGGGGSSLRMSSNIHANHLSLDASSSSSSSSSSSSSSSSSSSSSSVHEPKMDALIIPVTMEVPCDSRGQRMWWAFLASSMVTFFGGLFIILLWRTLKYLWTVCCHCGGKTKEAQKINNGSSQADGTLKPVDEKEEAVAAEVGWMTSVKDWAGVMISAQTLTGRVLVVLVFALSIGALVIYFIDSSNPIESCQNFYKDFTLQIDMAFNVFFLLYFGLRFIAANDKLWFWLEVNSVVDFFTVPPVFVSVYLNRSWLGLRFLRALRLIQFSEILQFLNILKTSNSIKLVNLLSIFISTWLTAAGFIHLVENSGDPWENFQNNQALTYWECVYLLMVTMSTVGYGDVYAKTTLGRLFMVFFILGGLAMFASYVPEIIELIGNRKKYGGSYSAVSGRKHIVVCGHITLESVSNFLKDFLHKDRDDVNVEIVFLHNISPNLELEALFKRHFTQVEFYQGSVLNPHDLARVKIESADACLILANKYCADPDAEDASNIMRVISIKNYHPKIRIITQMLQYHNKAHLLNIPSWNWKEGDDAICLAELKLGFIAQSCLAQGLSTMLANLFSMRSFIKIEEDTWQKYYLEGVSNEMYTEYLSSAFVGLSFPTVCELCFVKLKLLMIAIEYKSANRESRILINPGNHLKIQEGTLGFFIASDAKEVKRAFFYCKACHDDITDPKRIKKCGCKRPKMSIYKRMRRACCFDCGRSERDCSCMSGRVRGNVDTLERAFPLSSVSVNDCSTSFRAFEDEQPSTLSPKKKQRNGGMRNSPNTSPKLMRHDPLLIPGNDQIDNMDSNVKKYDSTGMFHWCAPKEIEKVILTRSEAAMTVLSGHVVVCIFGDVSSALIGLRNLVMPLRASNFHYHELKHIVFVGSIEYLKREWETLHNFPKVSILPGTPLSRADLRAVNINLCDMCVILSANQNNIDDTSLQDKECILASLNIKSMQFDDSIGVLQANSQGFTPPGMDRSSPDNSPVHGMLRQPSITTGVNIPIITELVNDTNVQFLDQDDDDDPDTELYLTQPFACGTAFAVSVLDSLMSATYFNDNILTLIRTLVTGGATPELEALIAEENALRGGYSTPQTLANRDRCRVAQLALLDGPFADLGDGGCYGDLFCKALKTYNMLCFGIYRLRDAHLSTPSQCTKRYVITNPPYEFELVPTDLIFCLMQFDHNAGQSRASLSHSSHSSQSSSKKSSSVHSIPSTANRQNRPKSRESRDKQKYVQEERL
With `O=c1[nH]c2cc(C(F)(F)F)ccc2n1-c1cc(Cl)ccc1O` the Maxi-K current, % of control was 132%. `O=c1cc(-c2ccc(O)cc2)oc2cc(O)cc(O)c12` gave a Maxi-K current, % of control of 159%. For `COc1cc(OC)c2c(=O)c(OC)c(-c3ccc(OC)c(OC)c3)oc2c1`, the Maxi-K current, % of control was 94.6%. For `CC(=O)Nc1ccc(O)c(C(=O)/C=C/c2ccccc2)c1`, the Maxi-K current, % of control was 81.5%. Compound `O=c1c(O)c(-c2ccc(O)cc2)oc2cc(O)cc(O)c12` has a Maxi-K current, % of control of 167%. Compound `O=C(/C=C/c1cccc([N+](=O)[O-])c1)c1ccccc1O` has a Maxi-K current, % of control of 74.4%. `O=C(/C=C/c1ccccc1)c1ccccc1` gave a Maxi-K current, % of control of 82.4%. Compound `O=c1cc(-c2ccccc2)oc2ccccc12` has a Maxi-K current, % of control of 103%. `O=C(CCc1ccc(O)cc1)c1c(O)cc(O)cc1O` showed a Maxi-K current, % of control of 120%.
